Test results: PubChem BioAssay (NCI)
Where “and” joins values, the source holds several entries; their conditions need not be identical. Equal values may be shown once.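 Interpolation was linear, between the two tested concentrations surrounding the appropriate level; five concentrations were tested over 48 hours in 96-well plates. GI50 is the concentration that inhibits growth by half. TGI: total growth inhibition.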

Tests used:
Assay in all cases: inhibition of tumour cell growth, NCI panel, 48 h
SNB-78 CNS = system: SNB-78 CNS
SK-MEL-2 melanoma = system: SK-MEL-2 melanoma
U251 CNS = system: U251 CNS
COLO 205 colon = system: COLO 205 colon
SK-MEL-5 melanoma = system: SK-MEL-5 melanoma
OVCAR-5 ovarian = system: OVCAR-5 ovarian
EKVX NSCLC = system: EKVX NSCLC
UO-31 renal = system: UO-31 renal
NCI-H226 lung = system: NCI-H226 lung
NCI-H522 lung = system: NCI-H522 lung

Compound	TGI (SNB-78 CNS) [µM]	TGI (SK-MEL-2 melanoma) [µM]	TGI (U251 CNS) [µM]	TGI (COLO 205 colon) [µM]	TGI (SK-MEL-5 melanoma)	TGI (OVCAR-5 ovarian) [µM]	TGI (EKVX NSCLC) [µM]	TGI (UO-31 renal) [µM]	TGI (NCI-H226 lung)	TGI (NCI-H522 lung)	GI50 (SNB-78 CNS) [µM]	GI50 (SK-MEL-2 melanoma) [µM]	GI50 (U251 CNS) [µM]	GI50 (COLO 205 colon) [µM]	GI50 (SK-MEL-5 melanoma) [µM]	GI50 (OVCAR-5 ovarian)	GI50 (EKVX NSCLC) [µM]	GI50 (UO-31 renal)	GI50 (NCI-H522 lung) [µM]	GI50 (NCI-H226 lung) [µM]
C[C@]12CC[C@H](OC(=O)Nc3ccccc3)CC1=CC[C@@H]1C2CC[C@]2(C)/C(=N/OC(=O)Nc3ccccc3)CCC12 (stereo not given in full)	> 100	> 100	> 100	> 100	> 100 µM	> 100	> 100	7.91	–	–	–	–	–	–	–	–	–	–	–	–
COC(=O)C1=C(O)c2cc(OC)c(OC)c(OC)c2C(c2ccc3c(c2)OCO3)[C@@H]1C(=O)OC (stereo not given in full)	> 100	> 100	> 100	6.37	–	> 100	> 100	> 100	> 100 µM	–	–	–	–	–	–	–	–	–	–	–
CC(NC1CCCC[C@@H]1O)c1ccccc1 (stereo not given in full)	> 100	> 100	> 100	> 100	> 100 µM	> 100	> 100	> 100	> 100 µM	–	–	–	–	–	–	–	–	–	–	–
Cn1cnnc1Sc1c([N+](=O)[O-])nc(-c2ccc([N+](=O)[O-])cc2)n1C	35.6	29.8	30.2	28.3	30.8 µM	52	76.1	28	89.9 µM	19.7 µM	–	–	–	–	–	–	–	–	–	–
CN(C)C(=S)/N=c1\ssc(=Nc2ccccc2)n1-c1ccccc1	79.7	> 100	70.7	–	–	> 100	94.4	> 100	26.7 µM	34 µM	–	–	–	–	–	–	–	–	–	–
COc1ccccc1/C=C(\NC(=O)c1ccccc1)c1nc2ccccc2[nH]1	> 100	> 100	> 100	80.3	48 µM	> 100	> 100	> 100	–	> 100 µM	–	–	–	–	–	–	–	–	–	–
N.N.N.N.O=S([O-])[O-].[Co+3].[N-]=[N+]=[N-]	> 100	> 100	> 100	> 100	> 100 µM	> 100	> 100	> 100	–	> 100 µM	> 100	> 100	> 100	> 100	> 100	> 100 µM	> 100	> 100 µM	42.3	–
COc1c2c(c(O)c3c4c(c(C)cc13)C1OC3(C(OC)OC5CC(C)(O)C(OC6CC(C)(O)C(O)C(C)O6)C(C)O5)OC1C(OC)(O4)C31CO1)C(=O)C(O)CC2OC1CC(C)(O)C(OC(C)=O)C(C)O1 (stereo not given)	< 0.0448	< 0.01	< 0.0108	–	< 0.01 µM	< 0.01	0.0336	0.154	< 0.01 µM	< 0.01 µM	–	–	–	–	–	–	–	–	–	–
CCOC(=O)C(Cc1cc(OC)c(CC(C(=O)OCC)C(=O)OCC)cc1OC)C(=O)OCC	> 100	> 100	> 100	> 100	> 100 µM	> 100	> 100	> 100	> 100 µM	> 100 µM	–	–	–	–	–	–	–	–	–	–
O=c1[nH]c(=S)[nH]c2c1CCCN2	> 100	> 100	> 100	> 100	> 100 µM	> 100	> 100	> 100	–	> 100 µM	–	–	–	–	–	–	–	–	–	–
Nc1ccccc1SC(/C=C/NNC1=NC(c2ccccc2)C(c2ccccc2)=NN1)c1ccccc1 (stereo not given)	44.3	33	28.9	29	26.8 µM	37.1	29	18.4	30.4 µM	14.5 µM	–	–	–	–	–	–	–	–	–	–
O=C1N=C2N=C(c3ccc(Cl)cc3)N(c3ccc(Cl)cc3)N2Sc2ccccc21	> 100	> 100	87.2	> 100	> 100 µM	> 100	> 100	> 100	> 100 µM	> 100 µM	–	–	–	–	–	–	–	–	–	–
O=C(Cc1nc2ccccc2s1)C(=O)Nc1cccc(C(F)(F)F)c1	> 100	> 100	> 100	> 100	> 100 µM	–	> 100	> 100	> 100 µM	> 100 µM	–	–	–	–	–	–	–	–	–	–
CCCCn1c(-c2ccccc2)cs/c1=N\NC(=O)Cn1c(C)nc2ccccc21	> 100	> 100	> 100	38.2	> 100 µM	> 100	> 100	> 100	> 100 µM	> 100 µM	–	–	–	–	–	–	–	–	–	–
NCCOCCOCC(=O)O	> 100	> 100	> 100	–	> 100 µM	> 100	> 100	> 100	> 100 µM	> 100 µM	–	–	–	–	–	–	–	–	–	–
CCNC(=O)COc1ccc(Cl)c(C)c1	> 100	> 100	> 100	> 100	> 100 µM	> 100	–	> 100	> 100 µM	> 100 µM	–	–	–	–	–	–	–	–	–	–
CNC(=O)NCCCCC(NC(C)=O)C(=O)NCc1ccccc1 (stereo not given)	> 100	> 100	> 100	> 100	> 100 µM	> 100	> 100	> 100	> 100 µM	> 100 µM	–	–	–	–	–	–	–	–	–	–
COc1ccc(OCC(=O)O)c2c1CCC(C)C2=O (stereo not given)	> 100	> 100	> 100	> 100	> 100 µM	> 100	> 100	> 100	–	> 100 µM	–	–	–	–	–	–	–	–	–	–
C/C(=N/NC(N)=S)C(CN1CCOCC1)C(C1=C(O)c2ccccc2OC1)c1ccccc1 (stereo not given)	> 100	> 100	> 100	> 100	> 100 µM	> 100	> 100	> 100	> 100 µM	> 100 µM	–	–	–	–	–	–	–	–	–	–

Compound	TGI (SNB-78 CNS) [µM]	TGI (SK-MEL-2 melanoma) [µM]	TGI (U251 CNS) [µM]	TGI (COLO 205 colon) [µM]	TGI (SK-MEL-5 melanoma)	TGI (OVCAR-5 ovarian) [µM]	TGI (EKVX NSCLC) [µM]	TGI (UO-31 renal) [µM]	TGI (NCI-H226 lung)	TGI (NCI-H522 lung)	GI50 (SNB-78 CNS) [µM]	GI50 (SK-MEL-2 melanoma) [µM]	GI50 (U251 CNS) [µM]	GI50 (COLO 205 colon) [µM]	GI50 (SK-MEL-5 melanoma) [µM]	GI50 (OVCAR-5 ovarian)	GI50 (EKVX NSCLC) [µM]	GI50 (UO-31 renal)	GI50 (NCI-H522 lung) [µM]	GI50 (NCI-H226 lung) [µM]
Cc1c2cc[n+](C)cc2c(C)c2c1[nH]c1ccc(OCC(F)(F)F)cc12	> 100	> 100	1.49	–	11.2 µM and 7.07 µM	> 100	82.9	> 100	1.69 µM and 3.75 µM	5.64 µM and 4.83 µM	–	5.9	–	–	–	12 µM and > 100 µM	–	36.6 µM and > 100 µM	–	0.581
BrCc1ccc2ccc3ccc(CBr)nc3c2n1	4.43	15	19	4.3	8.16 µM	27.1	22.6	4.57	15 µM	–	–	–	–	–	–	–	–	–	–	–
O=C(NCCCN1CCN(CCCNC(=O)Nc2cc(Cl)ccc2Cl)CC1)Nc1cc(Cl)ccc1Cl	> 100	> 100	> 100	> 100	> 100 µM	> 100	–	> 100	> 100 µM	> 100 µM	–	–	–	–	–	–	–	–	–	–
O=C(O)C1CC2C=CCC(C2)C1 (stereo not given)	> 100	> 100	> 100	> 100	> 100 µM	> 100	> 100	> 100	> 100 µM	> 100 µM	–	–	–	–	–	–	–	–	–	–
c1ccc(N2CCN(CCN3CCc4c([nH]c5ccccc45)C3c3cccnc3)CC2)cc1 (stereo not given)	> 100	–	> 100	–	> 100 µM	> 100	> 100	> 100	–	> 100 µM	–	–	–	–	–	–	–	–	–	–
Cc1nc(C(=O)OCc2ccccc2)cc(OCc2ccccc2)c1C	–	> 84.5	48.2	65.1	26 µM	51.6	52.7	39	46.9 µM	37 µM	–	26.4	17.6	22.6	10.7	21.8 µM	19.3	18.3 µM	15.5	19.1
COc1c(OC2OC(C)C(O)C(O)C2O)c(OC)c2oc(-c3ccc(O)cc3)cc(=O)c2c1O (stereo not given)	–	> 100	> 100	> 100	> 100 µM	> 100	> 100	> 100	> 100 µM	64.5 µM	–	47.4	30.2	29.3	35.4	> 100 µM	38.4	22.8 µM	24.2	30.6
C=C(CN1CCc2ccccc2C1)c1ccc(CCCC(=O)Nc2ccccc2N)cc1	–	31.8	44.5	33.1	17.3 µM	80.2	47.1	17.7	94.6 µM	7.15 µM	–	14.5	18.4	17	5.01	26.5 µM	12	2.7 µM	1.92	28.8
CC(C)C(Br)C(=O)NCC(=O)O (stereo not given)	–	> 100	> 100	> 100	> 100 µM	> 100	> 100	> 100	> 100 µM	> 100 µM	–	–	–	–	–	–	–	–	–	–
O=c1cc(-c2ccccc2)oc2cc(OCCCCCCCCCCOc3ccc4c(=O)cc(-c5ccccc5)oc4c3)ccc12	> 100	> 100	> 100	> 100	> 100 µM	> 100	> 100	–	–	> 100 µM	–	–	–	–	–	–	–	–	–	–
COc1ccc2c(CN3CCCC[C@H]3O)cc3cc4c(cc3c2c1)OCO4	–	0.889	10.8	1.36	1.39 µM	14.1	9.44	5.67	0.589 µM	0.559 µM	–	0.291	0.422	0.185	0.345	0.489 µM	0.817	0.31 µM	0.214	0.251
CCCCC[C@H]1C/C=C2/C(=O)C=C[C@@H]2C/C=C\CCCC(=O)O1	–	0.296	0.305	0.256	0.168 µM	2.73	1.97	0.171	0.18 µM	0.236 µM	–	0.114	0.116	0.113	0.0844	0.221 µM	0.172	0.0902 µM	0.0936	0.0904
O=C(Nc1ccccc1)N1C(c2ccccc2)=N[C@@H](c2ccccc2)[C@@H]1c1ccccc1	> 100	–	–	28.8	26.8 µM	45.1	> 100	30.6	46.4 µM	–	–	–	–	–	–	–	–	–	–	–
CN(Cc1cnc2nc(N)nc(N)c2n1)c1c(Cl)cc(C(=O)NC(CCC(=O)O)C(=O)O)cc1Cl (stereo not given)	–	> 100	> 100	> 100	> 100 µM	> 100	> 100	> 100	> 100 µM	> 100 µM	–	> 100	0.0423	0.08	0.0483	1.76 µM	–	< 0.01 µM	0.0457	0.0745
CCN(CC)c1ccc(/C=N/N=C(N)N)cc1	–	8.33	23.4	3.51	13.4 µM	> 100	93.8	38.9	22.8 µM	4.8 µM	–	2.85	5.49	1.79	3.16	17.1 µM	7.59	6.78 µM	1.91	3.84
O=C1c2ccccc2-c2c1c1ccccc1c(=O)n2CCNCCNCCNCCNCCn1c2c(c3ccccc3c1=O)C(=O)c1ccccc1-2	–	2.4	> 100	3.94	1.47 µM	> 100	2.7	2.09	1.95 µM	0.474 µM	–	0.692	> 100	0.597	0.323	> 100 µM	0.677	0.661 µM	0.0202	0.368
O=C(O)C(Cc1ccccc1)N1C(=O)/C(=C/C(Cl)=C/c2ccc([N+](=O)[O-])cc2)SC1=S (stereo not given)	–	4.5	3.52	6.21	3.06 µM	7.9	7.29	3.1	3.27 µM	4.47 µM	–	1.87	1.72	2.45	1.68	2.82 µM	2.59	1.59 µM	1.72	1.58
COc1cc(N)c(Cl)cc1C(=O)N[C@@H]1CCN(CCCOc2ccc(F)cc2)C[C@@H]1OC	–	> 100	> 100	> 100	> 100 µM	> 100	> 100	> 100	> 100 µM	> 100 µM	–	> 100	> 100	54.8	17.8	> 100 µM	> 100	27.9 µM	61.8	> 100
